PubChem BioAssay AID1963971 (Molecular Pharmacology Branch, DTP, NCI, 2024)

Test system: 953936-095-R-J2-PDC spheroids with HUVEC/MSC, viability
Assay: Anticancer human tumor 953936-095-R-J2-PDC patient-derived cervical squamous cell carcinoma cell line growth inhibition [PI3K]
Conditions: for viability, T/C: stronger effect = lower value
Outline: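 Complex 3D spheroids (cancer cells + endothelial HUVEC + mesenchymal stem cells); drug pairs of targeted agent x inavolisib/alpelisib/duvelisib/copanlisib; half-log series from ~Cmax, max 10 microM if Cmax unknown; endpoint viability.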

[1] = curve of first compound, second compound 0.00316 µM
[2] = curve of first compound, second compound 0.01 µM
[3] = curve of first compound, second compound 0.0316 µM
[4] = curve of first compound, second compound 0.1 µM
[5] = curve of first compound, second compound 0.316 µM
[6] = curve of first compound, second compound 1 µM
[7] = second compound 0.00316 µM, first compound 0.0316 µM
[8] = second compound 0.00316 µM, first compound 0.1 µM
[9] = second compound 0.00316 µM, first compound 0.316 µM
[10] = second compound 0.00316 µM, first compound 1 µM
[11] = second compound 0.00316 µM, first compound 3.16 µM
[12] = second compound 0.00316 µM, first compound 10 µM
[13] = second compound 0.01 µM, first compound 0.0316 µM
[14] = second compound 0.01 µM, first compound 0.1 µM
[15] = second compound 0.01 µM, first compound 0.316 µM
[16] = second compound 0.01 µM, first compound 1 µM
[17] = second compound 0.01 µM, first compound 3.16 µM
[18] = second compound 0.01 µM, first compound 10 µM
[19] = second compound 0.0316 µM, first compound 0.0316 µM
[20] = second compound 0.0316 µM, first compound 0.1 µM
[21] = second compound 0.0316 µM, first compound 0.316 µM
[22] = second compound 0.0316 µM, first compound 1 µM
[23] = second compound 0.0316 µM, first compound 3.16 µM
[24] = second compound 0.0316 µM, first compound 10 µM
[25] = second compound 0.1 µM, first compound 0.0316 µM
[26] = second compound 0.1 µM, first compound 0.1 µM
[27] = second compound 0.1 µM, first compound 0.316 µM
[28] = second compound 0.1 µM, first compound 1 µM
[29] = second compound 0.1 µM, first compound 3.16 µM
[30] = second compound 0.1 µM, first compound 10 µM
[31] = second compound 0.316 µM, first compound 0.0316 µM
[32] = second compound 0.316 µM, first compound 0.1 µM
[33] = second compound 0.316 µM, first compound 0.316 µM
[34] = second compound 0.316 µM, first compound 1 µM
[35] = second compound 0.316 µM, first compound 3.16 µM
[36] = second compound 0.316 µM, first compound 10 µM
[37] = second compound 1 µM, first compound 0.0316 µM
[38] = second compound 1 µM, first compound 0.1 µM
[39] = second compound 1 µM, first compound 0.316 µM
[40] = second compound 1 µM, first compound 1 µM
[41] = second compound 1 µM, first compound 3.16 µM
[42] = second compound 1 µM, first compound 10 µM
[43] = compound alone, run of 06/13/2023
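Note: spheroids exposed to compounds for seven days before read-out.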

Structure (SMILES): C[C@@H](NC(=O)c1ncnc(N)c1Cl)c1ncc(C(=O)Nc2cc(C(F)(F)F)c(Cl)cn2)s1 + CC(Nc1ccc2c(c1)OCCn1cc(N3C(=O)OCC3C(F)F)nc1-2)C(N)=O
- IC50 [1]: > 10000 nM
- IC50 [2]: > 10000 nM
- IC50 [3]: > 10000 nM
- IC50 [4]: > 10000 nM
- IC50 [5]: < 31.6 nM
- IC50 [6]: < 31.6 nM
- viability, T/C [7]: 98.6%
- viability, T/C [8]: 103%
- viability, T/C [9]: 101%
- viability, T/C [10]: 104%
- viability, T/C [11]: 113%
- viability, T/C [12]: 97.7%
- viability, T/C [13]: 97.2%
- viability, T/C [14]: 89.3%
- viability, T/C [15]: 102%
- viability, T/C [16]: 99.5%
- viability, T/C [17]: 107%
- viability, T/C [18]: 121%
- viability, T/C [19]: 78.6%
- viability, T/C [20]: 74.3%
- viability, T/C [21]: 78.2%
- viability, T/C [22]: 90.8%
- viability, T/C [23]: 93.9%
- viability, T/C [24]: 85.2%
- viability, T/C [25]: 55.6%
- viability, T/C [26]: 56.5%
- viability, T/C [27]: 61.2%
- viability, T/C [28]: 61.5%
- viability, T/C [29]: 67.8%
- viability, T/C [30]: 53.2%
- viability, T/C [31]: 37.2%
- viability, T/C [32]: 34.8%
- viability, T/C [33]: 38.3%
- viability, T/C [34]: 39.8%
- viability, T/C [35]: 40.8%
- viability, T/C [36]: 41.9%
- viability, T/C [37]: 23%
- viability, T/C [38]: 26.8%
- viability, T/C [39]: 25.3%
- viability, T/C [40]: 27.2%
- viability, T/C [41]: 27.7%
- viability, T/C [42]: 24.8%

Structure (SMILES): COc1c(OCCCN2CCOCC2)ccc2c3n(c(=NC(=O)c4cnc(N)nc4)nc12)CCN3
- viability, T/C (compound 0.00316 µM): 85% [middle of 8 runs]
- viability, T/C (compound 0.01 µM): 71.1% [middle of 8 runs]
- viability, T/C (compound 0.0316 µM): 39.5% [middle of 8 runs]
- viability, T/C (compound 0.1 µM): 17.8% [middle of 8 runs]
- viability, T/C (compound 0.316 µM): 5.89% [middle of 8 runs]
- viability, T/C (compound 1 µM): 1.69% [middle of 7 runs]
- IC50 [43]: 22.6 nM [middle of 6 runs]

Structure (SMILES): CC(Nc1ncnc2nc[nH]c12)c1cc2cccc(Cl)c2c(=O)n1-c1ccccc1 (stereo not given)
- viability, T/C (compound 0.0316 µM): 97.8% [middle of 8 runs]
- viability, T/C (compound 0.1 µM): 93.8% [middle of 8 runs]
- viability, T/C (compound 0.316 µM): 92.2% [middle of 8 runs]
- viability, T/C (compound 1 µM): 85.9% [middle of 8 runs]
- viability, T/C (compound 3.16 µM): 80% [middle of 8 runs]
- viability, T/C (compound 10 µM): 65% [middle of 8 runs]
- IC50 [43]: > 10000 nM

Structure (SMILES): CNC(=O)c1ccc(N2C(=S)N(c3ccc(C#N)c(C(F)(F)F)c3)C(=O)C2(C)C)cc1F + COc1c(OCCCN2CCOCC2)ccc2c3n(c(=NC(=O)c4cnc(N)nc4)nc12)CCN3
- IC50 [1]: > 10000 nM
- IC50 [2]: > 10000 nM
- IC50 [3]: < 31.6 nM
- IC50 [4]: < 31.6 nM
- IC50 [5]: < 31.6 nM
- IC50 [6]: < 31.6 nM
- viability, T/C [7]: 86.8%
- viability, T/C [8]: 85%
- viability, T/C [9]: 92%
- viability, T/C [10]: 89.7%
- viability, T/C [11]: 81.6%
- viability, T/C [12]: 70%
- viability, T/C [13]: 72.6%
- viability, T/C [14]: 72.3%
- viability, T/C [15]: 76.7%
- viability, T/C [16]: 66.6%
- viability, T/C [17]: 74.6%
- viability, T/C [18]: 63.9%
- viability, T/C [19]: 42.1%
- viability, T/C [20]: 43%
- viability, T/C [21]: 42.3%
- viability, T/C [22]: 45.8%
- viability, T/C [23]: 41.6%
- viability, T/C [24]: 37.3%
- viability, T/C [25]: 19.2%
- viability, T/C [26]: 18.7%
- viability, T/C [27]: 18.4%
- viability, T/C [28]: 18%
- viability, T/C [29]: 19.6%
- viability, T/C [30]: 17.2%
- viability, T/C [31]: 6.13%
- viability, T/C [32]: 6.8%
- viability, T/C [33]: 6.44%
- viability, T/C [34]: 6.88%
- viability, T/C [35]: 8.06%
- viability, T/C [36]: 6.65%
- viability, T/C [37]: 1.46%
- viability, T/C [38]: 1.67%
- viability, T/C [39]: 1.58%
- viability, T/C [40]: 1.92%
- viability, T/C [41]: 1.61%
- viability, T/C [42]: 1.49%

Structure (SMILES): CC(C)NCC(C(=O)N1CCN(c2ncnc3c2C(C)CC3O)CC1)c1ccc(Cl)cc1 (stereo not given) + Cc1nc(NC(=O)N2CCCC2C(N)=O)sc1-c1ccnc(C(C)(C)C(F)(F)F)c1
- IC50 [3]: 825 nM
- IC50 [4]: 709 nM
- IC50 [5]: 463 nM
- IC50 [6]: < 31.6 nM
- IC50 (curve of first compound, second compound 3.16 µM): < 31.6 nM
- IC50 (curve of first compound, second compound 10 µM): < 31.6 nM
- viability, T/C [19]: 88.8%
- viability, T/C [20]: 89.2%
- viability, T/C [21]: 75.7%
- viability, T/C [22]: 44.1%
- viability, T/C [23]: 23.3%
- viability, T/C [24]: 14.3%
- viability, T/C [25]: 82.6%
- viability, T/C [26]: 76.7%
- viability, T/C [27]: 67.2%
- viability, T/C [28]: 42.4%
- viability, T/C [29]: 22.4%
- viability, T/C [30]: 12.2%
- viability, T/C [31]: 64.6%
- viability, T/C [32]: 62.4%
- viability, T/C [33]: 55.6%
- viability, T/C [34]: 38.2%
- viability, T/C [35]: 17.4%
- viability, T/C [36]: 11.6%
- viability, T/C [37]: 48.7%
- viability, T/C [38]: 42.2%
- viability, T/C [39]: 39.3%
- viability, T/C [40]: 28.3%
- viability, T/C [41]: 16.2%
- viability, T/C [42]: 7.67%
- viability, T/C (second compound 3.16 µM, first compound 0.0316 µM): 27.6%
- viability, T/C (second compound 3.16 µM, first compound 0.1 µM): 25.6%
- viability, T/C (second compound 3.16 µM, first compound 0.316 µM): 24.5%
- viability, T/C (second compound 3.16 µM, first compound 1 µM): 18%
- viability, T/C (second compound 3.16 µM, first compound 3.16 µM): 11.3%
- viability, T/C (second compound 3.16 µM, first compound 10 µM): 5.35%
- viability, T/C (second compound 10 µM, first compound 0.0316 µM): 11.6%
- viability, T/C (second compound 10 µM, first compound 0.1 µM): 11.2%
- viability, T/C (second compound 10 µM, first compound 0.316 µM): 10.9%
- viability, T/C (second compound 10 µM, first compound 1 µM): 8.17%
- viability, T/C (second compound 10 µM, first compound 3.16 µM): 5.5%
- viability, T/C (second compound 10 µM, first compound 10 µM): 2.61%
